Results on two compounds are retold here after paper PMC12731105, “Design and Synthesis of New Quinoxaline Analogs to Regenerate Sensory Auditory Hair Cells” (Cells, 2025).

Data set [1] has as its system plasma protein. Briefly: Plasma protein binding (rapid equilibrium dialysis). It counts as in vitro ADME, mice. In general terms: Equilibrium dialysis compares concentrations on both sides of a semipermeable membrane.
Data set [2] concerns zebrafish neuromast SCs. In words: EdU proliferation assay in zebrafish neuromasts. The settings on record: p < 0.05; for Number of proliferating (EdU-positive) cells per neuromast vs control: zebrafish, 50–300 μg/mL, 24 h post-treatment. The format is in vivo, zebrafish (Danio rerio). The procedure: In vitro cell proliferation effects of all ten initial compounds (Figure 1A,B) were tested on HEI-OC1, Neuro-2A and HT-1080 cells by TACS® 3-(4,5-dimethylthiazol-2-yl)-2,5-diphenyltetrazolium bromide (MTT) Cell Proliferation Assay (R&D Systems, Minneapolis, MN, USA, 4890-025-K), following the manufacturer’s protocol. Absorbance was measured with SpectraMax® M Series Multi-Mode Microplate Reader with Soft Max Pro 7.2 GxP Software (Molecular Devices, Sunnyvale, CA, USA), and the average OD in control cells was taken as 100% of viability. Upon selecting the most viable compounds (Qx-294 and Qx-301), we proceeded with in vivo experiments. For zebrafish treatment, animals were incubated for varied times with different concentrations (50, 100, 150, 200, 250, and 300 μg/mL) of Qx-294 or Qx-301 diluted in swimming (E3) media or administered via IP injections. Mice treatment followed the same procedures as described in [18]. Following treatment, animals or tissue samples were incubated in Click-it EdU or Click-it Plus TUNEL kits (Thermo Scientific, Waltham, MA, USA), following the manufacturer’s instructions to label proliferating and apoptotic cells, respectively.
Cell numbers in mouse cochleae or fish, as well as fish neuromast morphologies, were evaluated in 25 zebrafish per drug and treatment group across three experimental runs. […] Images were analyzed at 200X magnification, obtained from different neuromasts and cochlear regions (apex, middle, and base). HCs were quantified in the mouse OC by counting M7a-positive cells, with HC identity further confirmed by phalloidin-labeled stereocilia. Apoptosis and cell proliferation events, on the other hand, were quantified by counting TUNEL- and EdU-positive cells, respectively. […] The number of HCs (IHCs and OHCs) is expressed as units per 200 μm. […] IHCs and OHCs were counted on reconstructed confocal stacks using NIH ImageJ v1.8.0 software. […] Reliability statistics were calculated in SPSS v22.0. […] Fluorescence incorporation following treatment with FM1-43 was quantified according to [19] using ImageJ. […]

For data set [3], the system named is mouse auditory function. Briefly: Distortion product otoacoustic emissions (DPOAE). The format is in vivo, mice (Mus musculus). The settings on record: for Frequencies at which DPOAE threshold improvement was statistically significant: 72 h group, p < 0.05; for Frequencies at which DPOAE threshold improvement was statistically significant / DPOAE thresholds at higher frequencies vs control: Two-Way ANOVA; for DPOAE vs control, 24 h treatment / DPOAE thresholds at higher frequencies vs control: C57BL/6J mice; for DPOAE vs control, 24 h treatment: 24 h post-treatment; for DPOAE thresholds at higher frequencies vs control: p < 0.01. As for the experimental part: C57BL/6J male and female mice between postnatal day 24 and 30 P-24-30) were randomized into control and experimental groups (9 mice per group per compound), with each experimental group receiving a single intraperitoneal (IP) injection of Qx-294 or Qx-301 at a dose of 300 mg/kg body weight, dissolved in dimethyl sulfoxide (DMSO). Controls consisted of treatment with DMSO alone (vehicle). A total of 90 adult wild-type C57/BL6 mice were used in this study. Based on the analysis, animals were examined at various times following treatment as described below.
Mice from all groups underwent auditory brainstem response (ABR) and distortion product otoacoustic emissions (DPOAEs) tests before the initiation of treatment with either compounds or vehicle, and at 24, 48, and 72 h post-treatment, as described below. After audiometric testing, pre-treatment mice were placed in a warm and clean cage and monitored until they were awake and able to remain upright in a sternal position. Alternatively, post-treatment mice had their cochleae processed for histological examination.
Methods for recording distortion product otoacoustic emissions (DPOAEs) were similar to those previously described. Stimuli for DPOAEs were generated and controlled with modules from TDT. Pure tone frequencies (f1, f2, f2/f1 ratio ¼ 1.25), at equal levels (L1 ¼ L2 ¼ 60 dBSPL), 150 ms duration, were generated with independent sources (TDT RX6 processor) and routed through separate drivers to mix acoustically in the ear canal (via plastic tubing placed securely at the external acoustic meatus). Stimuli were calibrated in a 0.1 mL coupler, which simulates the volume of the mouse ear canal. Stimulus frequencies for the primaries are such that geometric mean (GM ¼ (f1 x f2)0.5) frequencies ranged from 6.0 to 48.5 kHz (at least eight frequencies per octave). Ear canal sound pressure levels were recorded using a low-noise probe microphone (Etymotic ER 10Bþ). The microphone output was amplified and fed into the TDT RX6 processor for digital sampling, spectral averaging, and fast Fourier transform (FFT) processing. The amplitude of f1, f2, and the cubic difference distortion product (2f1–f2) were measured from the FFT waveform. The noise floor was measured from the amplitudes in the fifth and twelfth frequency bins above and below (±60 and 120, resp.) the 2f1-f2 component. For statistical comparison (Two-Way ANOVA), the mean DPOAE amplitude across all tested primary frequency pairs was calculated and compared between treatment and control groups.

Consider `c1ccc2nc(N3CCOCC3)cnc2c1` [Qx-294, 2-(morpholine)-quinoxaline], for which the “Plasma protein binding” value in data set [1] was “highly protein-bound”. Moreover, the “Number of proliferating (EdU-positive) cells per neuromast vs control” value in data set [2] was “significantly higher number of proliferating cells than the control groups”. Moreover, in data set [3], the “Frequencies at which DPOAE threshold improvement was statistically significant” value was “above 16 kHz”; the “DPOAE vs control, 24 h treatment” value is on record as “no statistically significant differences”; the “DPOAE thresholds at higher frequencies vs control” value is given as “significantly lower than those of the control group”.

Regarding `c1ccc2nc(N3CCCC3)cnc2c1` [Qx-301, 2-(pyrrolidine)-quinoxaline], in data set [2] (zebrafish neuromasts, Two-Way ANOVA with Bonferroni correction), the “Number of EdU-positive SCs compared between the two compounds” value is listed as “significantly higher for Qx-301- than for Qx-294-treated neuromasts”. In addition, the “Number of proliferating (EdU-positive) cells per neuromast vs control” value in data set [2] is recorded as “significantly higher number of proliferating cells than the control groups”. Besides, in data set [3], the “Frequencies at which DPOAE threshold improvement was statistically significant” value is recorded as “above 22.6 kHz”; the “DPOAE vs control, 24 h treatment” value is reported as “no statistically significant differences”; the “DPOAE thresholds at higher frequencies vs control” value is given as “significantly lower than those of the control group”.
